According to US20260220796A1, “Systems and Methods for High Throughput Single Molecule Tracking in Living Cells” (EIKON THERAPEUTICS, INC., priority 2022, published 2026):
“Also recorded” adds a separate entry of the source. Where two headings read alike, the source gives them in different places. Each block holds one molecule with its values, some of them ahead of it.

Columns and labels:
androgen receptor (AR) = androgen receptor (AR) (Homo sapiens, UniProt P10275)
Estrogen Receptor (ER) [1] = molecular target: T1, Estrogen Receptor (ER) (Homo sapiens, UniProt P03372); test: kinetic SMT (kSMT) of ER after compound addition; format: cell-based; details: FIG. 18C, 18D
T1 construct: expressed in transfected cells
T1 sequence (P03372 1-595): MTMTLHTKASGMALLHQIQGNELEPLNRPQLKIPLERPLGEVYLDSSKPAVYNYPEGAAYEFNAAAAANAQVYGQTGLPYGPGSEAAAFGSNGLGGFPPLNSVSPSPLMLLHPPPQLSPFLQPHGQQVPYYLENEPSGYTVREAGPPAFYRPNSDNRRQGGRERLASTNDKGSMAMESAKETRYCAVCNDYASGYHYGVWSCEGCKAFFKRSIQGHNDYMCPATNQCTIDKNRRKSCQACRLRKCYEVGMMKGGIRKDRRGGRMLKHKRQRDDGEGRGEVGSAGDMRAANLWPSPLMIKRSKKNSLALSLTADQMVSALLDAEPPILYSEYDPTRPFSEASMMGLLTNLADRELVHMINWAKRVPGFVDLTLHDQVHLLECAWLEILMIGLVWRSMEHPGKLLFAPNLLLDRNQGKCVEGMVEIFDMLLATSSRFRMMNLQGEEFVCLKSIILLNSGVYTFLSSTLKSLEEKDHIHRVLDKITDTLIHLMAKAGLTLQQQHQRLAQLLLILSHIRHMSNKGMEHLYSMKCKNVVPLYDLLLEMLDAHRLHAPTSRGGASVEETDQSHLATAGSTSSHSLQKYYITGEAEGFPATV

Estrogen Receptor (ER) [2] = molecular target: T1, Estrogen Receptor (ER); test: htSMT of Halo-ER in U2OS cells (fbound, Dfree); format: cell-based; details: for change in ER fbound (direction): follow-up of screen actives, dose titration or 100 nM
Estrogen Receptor (ER) [3] = molecular target: T1, Estrogen Receptor (ER); test: residence time imaging of ER-Halo (track length survival); format: cell-based; details: 100 nM, versus DMSO, FIG. 18E
ER = molecular target: T2, ER (Homo sapiens, UniProt P03372); test: Western blot of ER after compound treatment; format: cell-based; details: 24 hours prior to lysis; MCF7, T47d, U2OS Halo-ER; FIG. 22A
T2 construct: host or cells: Halo-ER U2OS, MCF7 or T47d (immunofluorescence)
T2 sequence (P03372 1-595): T1 sequence (P03372 1-595)

[4] = molecular target: T3, glucocorticoid receptor (GR) (Homo sapiens, UniProt P04150); test: htSMT of Halo-GR in U2OS cells; format: cell-based; details: 1 μM antagonist, singly or with cognate agonist, FIG. 36D
T3 construct: Because U2OS cells express GR endogenously, HaloTag was inserted right before the stop codon of endogenous NR3C1; endogenous in cells; host or cells: U2OS, CRISPR/Cas9 HaloTag knock-in at the endogenous NR3C1 locus
T3 sequence (P04150 1-777): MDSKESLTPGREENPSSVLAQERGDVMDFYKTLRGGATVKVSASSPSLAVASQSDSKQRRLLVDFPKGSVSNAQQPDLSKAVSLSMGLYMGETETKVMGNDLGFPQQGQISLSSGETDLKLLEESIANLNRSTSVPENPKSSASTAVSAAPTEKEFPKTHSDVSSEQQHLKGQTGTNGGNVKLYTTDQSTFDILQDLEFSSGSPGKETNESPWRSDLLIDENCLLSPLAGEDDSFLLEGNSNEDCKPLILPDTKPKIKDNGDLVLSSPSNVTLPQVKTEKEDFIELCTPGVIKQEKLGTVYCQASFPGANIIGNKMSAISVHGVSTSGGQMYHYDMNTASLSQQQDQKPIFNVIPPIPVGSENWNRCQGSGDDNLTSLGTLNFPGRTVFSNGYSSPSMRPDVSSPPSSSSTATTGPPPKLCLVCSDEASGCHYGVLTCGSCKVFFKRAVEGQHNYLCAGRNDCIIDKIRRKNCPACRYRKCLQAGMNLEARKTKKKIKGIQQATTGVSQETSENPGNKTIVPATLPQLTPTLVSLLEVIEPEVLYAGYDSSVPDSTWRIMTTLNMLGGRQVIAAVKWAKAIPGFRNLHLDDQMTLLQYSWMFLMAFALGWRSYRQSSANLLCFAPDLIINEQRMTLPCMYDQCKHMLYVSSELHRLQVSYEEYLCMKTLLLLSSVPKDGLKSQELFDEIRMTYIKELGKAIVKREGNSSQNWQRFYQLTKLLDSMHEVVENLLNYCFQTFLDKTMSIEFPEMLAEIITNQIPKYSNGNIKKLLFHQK
Description: Where appropriate, compounds were serially diluted in an Echo Qualified 384-Well Low Dead Volume Source Microplate (0018544, Beckman Coulter) to generate dose-titration source material.

androgen receptor (AR), sequence (P10275 whole entry): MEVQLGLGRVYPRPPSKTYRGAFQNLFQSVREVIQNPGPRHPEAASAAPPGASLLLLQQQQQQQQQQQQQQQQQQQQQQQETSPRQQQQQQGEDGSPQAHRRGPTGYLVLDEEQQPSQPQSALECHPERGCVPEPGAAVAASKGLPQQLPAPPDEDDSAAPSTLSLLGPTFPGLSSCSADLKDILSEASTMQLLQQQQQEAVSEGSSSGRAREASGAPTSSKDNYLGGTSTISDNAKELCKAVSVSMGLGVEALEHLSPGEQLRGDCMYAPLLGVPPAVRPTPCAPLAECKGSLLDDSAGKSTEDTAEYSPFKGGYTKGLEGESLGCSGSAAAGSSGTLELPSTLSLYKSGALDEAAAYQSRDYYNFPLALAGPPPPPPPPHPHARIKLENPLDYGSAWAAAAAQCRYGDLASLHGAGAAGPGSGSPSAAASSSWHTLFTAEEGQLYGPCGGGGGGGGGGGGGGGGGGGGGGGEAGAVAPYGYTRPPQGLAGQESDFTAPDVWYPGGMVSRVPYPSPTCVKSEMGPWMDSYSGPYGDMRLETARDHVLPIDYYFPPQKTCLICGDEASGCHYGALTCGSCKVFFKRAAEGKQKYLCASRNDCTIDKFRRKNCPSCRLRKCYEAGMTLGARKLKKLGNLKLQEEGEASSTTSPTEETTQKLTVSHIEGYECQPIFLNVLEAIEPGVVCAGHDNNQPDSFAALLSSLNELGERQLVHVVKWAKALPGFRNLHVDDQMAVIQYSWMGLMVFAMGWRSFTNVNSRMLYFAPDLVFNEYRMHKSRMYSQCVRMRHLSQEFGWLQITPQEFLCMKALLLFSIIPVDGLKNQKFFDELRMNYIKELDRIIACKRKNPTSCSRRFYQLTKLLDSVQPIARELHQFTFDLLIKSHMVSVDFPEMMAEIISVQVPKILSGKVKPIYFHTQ

Molecule: CC(O)c1cc(C(=O)N[C@@H](C)Cn2ccc(-c3ccc(C#N)c(Cl)c3)n2)[nH]n1 (stereo partly shown) [Darolutamide]
- effect on AR chromatin binding (change in fbound) (androgen receptor (AR)): decrease in chromatin binding

- time course of overall effect on ER movement (Estrogen Receptor (ER) [1]): reached a plateau after an hour
- change in ER fbound (direction) (Estrogen Receptor (ER) [2]): increase in fbound
Molecule: CC(C)c1cc(-c2n[nH]c(=O)n2-c2ccc3c(ccn3C)c2)c(O)cc1O [ganetespib]
- decrease in total number of long binding events (Estrogen Receptor (ER) [3]): four

Molecule: CC(C)C[C@H](NC(=O)[C@H](CCc1ccccc1)NC(=O)CN1CCOCC1)C(=O)N[C@@H](Cc1ccccc1)C(=O)N[C@@H](CC(C)C)C(=O)[C@@]1(C)CO1 [carfilzomib]
- time course of overall effect on ER movement (Estrogen Receptor (ER) [1]): slowly increasing over the four-hour measurement window

- ER degradation (western blot) (ER): leads to the degradation of ER
Molecule: C[C@]12CC[C@@H]3c4ccc(O)cc4C[C@@H](CCCCCCCCC[S+]([O-])CCCC(F)(F)C(F)(F)F)[C@H]3[C@@H]1CC[C@@H]2O (stereo partly shown) [fulvestrant]
- change in ER fbound / ER movement in bioactive screen (Estrogen Receptor (ER) [2]; 1 μM compound versus DMSO, 5,067-molecule screen, FIG. 15, 18A): increase in fbound; also recorded: significantly increased fbound

- time course of overall effect on ER movement (Estrogen Receptor (ER) [1]): reached a plateau after an hour
- change in ER fbound (direction) (Estrogen Receptor (ER) [2]): increase in fbound
Molecule: COc1cccc(-c2cc(F)ccc2[C@H]2Cc3nc(N)nc(C)c3C(=O)N2)n1 [HSP990]

Molecule: CC(C)C[C@H](NC(=O)[C@H](Cc1ccccc1)NC(=O)c1cnccn1)B(O)O [bortezomib]
- time course of overall effect on ER movement (Estrogen Receptor (ER) [1]): slowly increasing over the four-hour measurement window

- change in ER fbound / ER movement in bioactive screen (Estrogen Receptor (ER) [2]): significantly increased fbound
- maximal increase in fbound, compared (Estrogen Receptor (ER) [2]): lower maximal increases in fbound
Molecule: 4-hydroxytamoxifen

- effect on GR chromatin binding (change in fbound) [4]: decrease in chromatin binding
Molecule: CN(C)c1ccc(C(c2ccc(N(C)C)cc2)c2cc([N+](=O)[O-])ccc2Cl)cc1 [AL082D06]
